{"source": "patent US20240166652A1", "about": "“MODULATORS OF THE INTEGRATED STRESS PATHWAY” (Calico Life Sciences LLC, priority 2017, published 2024)"}
{"test_system": "ATF4 luciferase reporter in HEK293T cells", "assay": "ATF4-Luc assay (ATF4 luciferase reporter, tunicamycin-treated HEK293T cells)", "type": "cell-based, human", "conditions": "Homo sapiens, HEK-293T; HEK293T cells carrying the ATF4 luciferase reporter, 1 μg/mL tunicamycin, 7 hours", "units": {"EC50": "nM"}}
{"smiles": "Cc1cc(OCC(=O)NC23CCC(NC(=O)COc4ccc(Cl)c(F)c4)(CC2)[C@@H](O)C3)cc(C)c1C", "note": "[Compound 469, 2-(4-chloro-3-fluorophenoxy)-N-{(2S)-2-hydroxy-4-[2-(3,4,5-trimethylphenoxy)acetamido]bicyclo[2.2.2]octan-1-yl}acetamide]", "EC50": "> 2000"}
{"smiles": "O=C(COc1ccc(Cl)c(F)c1)NC12CCC(NC(=O)COc3cnn(CC(F)(F)F)c(=O)c3)(CC1)C(=O)C2", "note": "[Compound 317, 2-(4-chloro-3-fluorophenoxy)-N-[3-oxo-4-(2-{[6-oxo-1-(2,2,2-trifluoroethyl)-1,6-dihydropyridazin-4-yl]oxy}acetamido)bicyclo[2.2.2]octan-1-yl]acetamide]", "EC50": "> 2000"}
{"smiles": "O=C(COc1ccc(Cl)c(F)c1)NC12CC(N(CCO)CCCOc3ccc(Cl)c(F)c3)(C1)C2", "note": "[Compound 692, 2-(4-chloro-3-fluorophenoxy)-N-(3-{[3-(4-chloro-3-fluorophenoxy)propyl](2-hydroxyethyl)amino}bicyclo[1.1.1]pentan-1-yl)acetamide]", "EC50": "250 to 500"}
{"smiles": "O=C(COc1cccc(F)c1)NC12CC(NC(=O)COc3ccc(Cl)c(F)c3)(C1)C2", "note": "[Compound 410, 2-(4-chloro-3-fluorophenoxy)-N-{3-[2-(3-fluorophenoxy)acetamido]bicyclo[1.1.1]pentan-1-yl}acetamide]", "EC50": "< 10"}
{"smiles": "COc1ncc(OCC(=O)NC23CC(NC(=O)COc4ccc(Cl)c(F)c4)(C2)C3)cc1C", "note": "[Compound 253, 2-(4-chloro-3-fluorophenoxy)-N-(3-{2-[(6-methoxy-5-methylpyridin-3-yl)oxy]acetamido}bicyclo[1.1.1]pentan-1-yl)acetamide]", "EC50": "10 to 50"}
{"smiles": "O=C(COc1ccc(Cl)c(F)c1)NC12CCC(NC(CCOc3ccc(Cl)cc3)C(=O)O)(CC1)C[C@@H]2O", "note": "(stereo partly drawn) [Compound 706, 2-({(3S)-4-[2-(4-chloro-3-fluorophenoxy)acetamido]-3-hydroxybicyclo[2.2.2]octan-1-yl}amino)-4-(4-chlorophenoxy)butanoic acid]", "EC50": "250 to 500"}
{"smiles": "COC(=O)c1cc(OCC(=O)NC23CC(NC(=O)COc4ccc5c(c4)OC(F)(F)O5)(C2)C3)ccc1Cl", "note": "[Compound 275, methyl 2-chloro-5-{2-1(3-{2-[(2,2-difluoro-2H-1,3-benzodioxol-5-yl)oxy]acetamido}bicyclo[1.1.1]pentan-1-yl)aminol-2-oxoethoxy}benzoate]", "EC50": "500 to 2000"}
{"smiles": "N#CC(COc1ccc(Cl)cc1)NC12CCC(NC(=O)COc3ccc(Cl)c(F)c3)(CC1)[C@@H](O)C2", "note": "(stereo partly drawn) [Compound 699, 2-(4-chloro-3-fluorophenoxy)-N-[(2S)-4-{[2-(4-chlorophenoxy)-1-cyanoethyl]amino}-2-hydroxybicyclo[2.2.2]octan-1-yl]acetamide]", "EC50": "10 to 50"}
{"smiles": "O=C(COc1ccc(Cl)c(F)c1)NC12CCC(NC(=O)COc3ccc(Cl)c(F)c3)(CC1)C(C(=O)O)C2", "note": "(stereo not shown) [Compound 390, 1,4-bis[2-(4-chloro-3-fluorophenoxy)acetamido]bicyclo[2.2.2]octane-2-carboxylic Acid]", "EC50": "50 to 250"}
{"smiles": "O=C(COc1ccc(Cl)c(F)c1)NC12CC(NC(=O)COc3ccc(F)c(Cl)c3)(C1)C2", "note": "[Compound 534, 2-(4-chloro-3-fluorophenoxy)-N-{3-[2-(3-chloro-4-fluorophenoxy)acetamido]bicyclo[1.1.1]pentan-1-yl}acetamide]", "EC50": "< 10"}
{"smiles": "O=C(COc1cc(F)c2cn[nH]c2c1)NC12CCC(NC(=O)COc3ccc(F)c(F)c3)(CC1)[C@@H](O)C2", "note": "[Compound 728, 2-(3,4-difluorophenoxy)-N-[(2S)-4-{2-[(4-fluoro-1H-indazol-6-yl)oxy]acetamido}-2-hydroxybicyclo[2.2.2]octan-1-yl]acetamide]", "EC50": "< 10"}
{"smiles": "Cc1ccc(OCC(=O)NC23CC(NC(=O)COc4ccc(Cl)c(Cl)c4)(C2)C3)cn1", "note": "[Compound 295, 2-(3,4-dichlorophenoxy)-N-(3-{2-[(6-methylpyridin-3-yl)oxy]acetamido}bicyclo[1.1.1]pentan-1-yl)acetamide]", "EC50": "50 to 250"}
{"smiles": "CS(=O)(=O)c1ccc(OCC(=O)NC23CC(NC(=O)COc4ccc(Cl)c(F)c4)(C2)C3)cn1", "note": "[Compound 257, 2-(4-chloro-3-fluorophenoxy)-N-[3-(2-{[6-(methanesulfonyl)pyridin-3-yl]oxy}acetamido)bicyclo[1.1.1]pentan-1-yl]acetamide]", "EC50": "250 to 500"}
{"smiles": "CN1Cc2ccc(OCC(=O)NC34CCC(NC(=O)COc5ccc(Cl)c(F)c5)(CC3)[C@@H](O)C4)cc2C1=O", "note": "[Compound 695, 2-(4-chloro-3-fluorophenoxy)-N-[(2S)-2-hydroxy-4-{2-[(2-methyl-3-oxo-2,3-dihydro-1H-isoindol-5-yl)oxy]acetamido}bicyclo[2.2.2]octan-1-yl]acetamide]", "EC50": "500 to 2000"}
{"smiles": "O=C(COc1ccc(OC(F)(F)F)c(F)c1)NC12CCC(NC(=O)COc3ccc(F)cc3)(CC1)[C@@H](O)C2", "note": "[Compound 762, 2-(4-fluorophenoxy)-N-[(2S)-4-{2-[3-fluoro-4-(trifluoromethoxy)phenoxy]acetamido}-2-hydroxybicyclo[2.2.2]octan-1-yl]acetamide]", "EC50": "< 10"}
{"smiles": "O=C(COc1ccc(Cl)c(F)c1)NC12CCC(NC(=O)COc3ccc(Cl)c(F)c3)(CC1)C(Br)C2=O", "note": "(stereo not shown) [Compound 572, N,N′-(2-bromo-3-oxobicyclo[2.2.2]octane-1,4-diyl)bis[2-(4-chloro-3-fluorophenoxy)acetamide]]", "EC50": "10 to 50"}
{"smiles": "O=C(COc1ccc(Cl)c(F)c1)NC12CC(NC(=O)Cc3cc(F)cc(F)c3)(C1)C2", "note": "[Compound 491, 2-(4-chloro-3-fluorophenoxy)-N-{3-[2-(3,5-difluorophenyl)acetamido]bicyclo[1.1.1]pentan-1-yl}acetamide]", "EC50": "> 2000"}
{"smiles": "O=C(COc1ccc(Cl)c(F)c1)N[C@@H]1[C@@H]2CC[C@@](NC(=O)COc3ccc(Cl)c(F)c3)(C2)C[C@H]1O", "note": "(racemic) [Compound 625, rac-N,N′-[(1R,3R,4R,5R)-3-hydroxybicyclo[3.2.1]octane-1,4-diyl]bis[2-(4-chloro-3-fluorophenoxy)acetamide]]", "EC50": "< 10"}
{"smiles": "CC(=O)c1ccc(OCC(=O)NC23CCC(NC(=O)COc4ccc(Cl)c(F)c4)(CC2)[C@@H](O)C3)cc1", "note": "[Compound 524, 2-(4-acetylphenoxy)-N-{(3S)-4-[2-(4-chloro-3-fluorophenoxy)acetamido]-3-hydroxybicyclo[2.2.2]octan-1-yl}acetamide]", "EC50": "10 to 50"}
{"smiles": "N#Cc1cccc(COCC(=O)NC23CC(NC(=O)COc4ccc(Cl)c(Cl)c4)(C2)C3)c1", "note": "[Compound 161, 2-[(3-cyanophenyl)methoxy]-N-{3-[2-(3,4-dichlorophenoxy)acetamido]bicyclo[1.1.1]pentan-1-yl}acetamide]", "EC50": "50 to 250"}
{"smiles": "N#Cc1cc(OCC(=O)NC23CC(NC(=O)COc4ccc(Cl)c(F)c4)(C2)C3)ccn1", "note": "[Compound 277, 2-(4-chloro-3-fluorophenoxy)-N-(3-{2-[(2-cyanopyridin-4-yl)oxy]acetamido}bicyclo[1.1.1]pentan-1-yl)acetamide]", "EC50": "250 to 500"}
{"smiles": "CCc1ccc(OCC(=O)NC23CCC(NC(=O)COc4ccc(Cl)c(F)c4)(CC2)[C@@H](O)C3)cc1", "note": "[Compound 782, 2-(4-chloro-3-fluorophenoxy)-N-{(2S)-4-[2-(4-ethylphenoxy)acetamido]-2-hydroxybicyclo[2.2.2]octan-1-yl}acetamide]", "EC50": "< 10"}
{"smiles": "O=C(Cc1ccc(C(F)(F)F)cn1)NC12CCC(NC(=O)COc3ccc(Cl)c(F)c3)(CC1)C(O)C2", "note": "(stereo not shown) [Compound 356, 2-(4-chloro-3-fluorophenoxy)-N-(2-hydroxy-4-{2-[5-(trifluoromethyl)pyridin-2-yl]acetamido}bicyclo[2.2.2]octan-1-yl)acetamide]", "EC50": "10 to 50"}
{"smiles": "O=C(COc1cncc(C(F)(F)F)c1)NC12CCC(NC(=O)COc3ccc(Cl)c(F)c3)(C1)C2", "note": "[Compound 355, 2-(4-chloro-3-fluorophenoxy)-N-[4-(2-{[5-(trifluoromethyl)pyridin-3-yl]oxy}acetamido)bicyclo[2.1.1]hexan-1-yl]acetamide]", "EC50": "50 to 250"}
{"smiles": "O=C(COc1ccc(Cl)c(F)c1)NC12CC(NC(=O)COc3ccccc3OCCO)(C1)C2", "note": "[Compound 805, 2-(4-chloro-3-fluorophenoxy)-N-(3-{2-[2-(2-hydroxyethoxy)phenoxy]acetamido}bicyclo[1.1.1]pentan-1-yl)acetamide]", "EC50": "500 to 2000"}
{"smiles": "COc1ncc(OCC(=O)NC23CCC(NC(=O)COc4ccc(C(F)(F)F)c(F)c4)(CC2)[C@@H](O)C3)cn1", "note": "[Compound 633, 2-[3-fluoro-4-(trifluoromethyl)phenoxy]-N-[(2S)-2-hydroxy-4-{2-[(2-methoxypyrimidin-5-yl)oxy]acetamido}bicyclo[2.2.2]octan-1-yl]acetamide]", "EC50": "10 to 50"}
{"smiles": "O=C(COCCc1cccc(Cl)c1)NC12CC(NC(=O)COc3ccc(Cl)c(F)c3)(C1)C2", "note": "[Compound 133, 2-(4-chloro-3-fluorophenoxy)-N-(3-{2-[2-(3-chlorophenyl)ethoxy]acetamido}-bicyclo[1.1.1]pentan-1-yl)acetamide]", "EC50": "50 to 250"}
{"smiles": "CN(CC(=O)NC12CCC(NC(=O)COc3ccc(Cl)c(F)c3)(CC1)C[C@@H]2O)c1ccc(Cl)cc1", "note": "[Compound 656, 2-(4-chloro-3-fluorophenoxy)-N-[(3S)-4-{2-[(4-chlorophenyl)(methyl)amino]acetamido}-3-hydroxybicyclo[2.2.2]octan-1-yl]acetamide]", "EC50": "10 to 50"}
{"smiles": "Cc1cc(OCC(=O)NC23CCC(NC(=O)COc4ccc(Cl)c(F)c4)(CC2)[C@@H](O)C3)no1", "note": "[Compound 665, 2-(4-chloro-3-fluorophenoxy)-N-[(2S)-2-hydroxy-4-{2-[(5-methyl-1,2-oxazol-3-yl)oxy]acetamido}bicyclo[2.2.2]octan-1-yl]acetamide]", "EC50": "10 to 50"}
{"smiles": "CS(=O)(=O)c1cc(OCC(=O)NC23CCC(NC(=O)COc4ccc(F)c(F)c4)(CC2)[C@@H](O)C3)ccc1F", "note": "[Compound 818, 2-(3,4-difluorophenoxy)-N-[(2S)-4-{2-[4-fluoro-3-(methanesulfonyl)phenoxy]acetamido}-2-hydroxybicyclo[2.2.2]octan-1-yl]acetamide]", "EC50": "250 to 500"}
{"smiles": "O=C(COc1ccc(Cl)c(F)c1)NC12CC(NC(=O)COc3ccc(C(F)(F)F)nn3)(C1)C2", "note": "[Compound 256, 2-(4-chloro-3-fluorophenoxy)-N-[3-(2-{[6-(trifluoromethyl)pyridazin-3-yl]oxy}acetamido)bicyclo[1.1.1]pentan-1-yl]acetamide]", "EC50": "50 to 250"}
